# Target: T1, catalytic domain of the recombinant TACE protein (Homo sapiens, UniProt P78536)
# T1 construct: The catalytic domain of the recombinant TACE protein was expressed and purified; made in house
# Experiment: TACE FRET assay using TACE cat
# Format: biochemical
# Settings: not given
# How it was run: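 Initial fluorescence rate of Abz-[sequence]-Dpa pro-TNF-α peptide cleavage (substrate from 2 mM stock) read after adding substrate to enzyme (1 ug/ml) preincubated 10 min, room temperature, with inhibitor.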
# T1 sequence (P78536 223-474 limits assumed): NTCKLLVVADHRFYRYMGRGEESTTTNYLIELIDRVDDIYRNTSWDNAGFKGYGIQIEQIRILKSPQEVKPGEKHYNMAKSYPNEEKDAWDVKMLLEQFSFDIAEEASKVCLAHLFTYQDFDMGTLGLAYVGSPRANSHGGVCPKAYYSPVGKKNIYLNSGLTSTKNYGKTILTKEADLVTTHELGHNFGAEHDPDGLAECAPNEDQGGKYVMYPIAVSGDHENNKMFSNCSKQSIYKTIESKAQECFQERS
row,SMILES,IC50
1,"CC#CCOc1ccc(S(=O)(=O)N[C@@H](Cc2cn(Cc3ccc4c(c3)OCO4)c3ccc(OC)cc23)C(=O)O)cc1 [Example 65, 1-(1,3-benzodioxol-5-ylmethyl)-N-{[4-(but-2-ynyloxy)phenyl]sulfonyl}-5-methoxytryptophan]",1500 nM
2,"CC#CCOc1ccc(S(=O)(=O)N[C@@H](Cc2cn(CC3CCC3)c3ccc(OC)cc23)C(=O)O)cc1 [Example 69, N-{[4-(but-2-ynyloxy)phenyl]sulfonyl}-1-(cyclobutylmethyl)-5-methoxytryptophan]",1190 nM
3,"CC#CCOc1ccc(S(=O)(=O)N[C@@H](Cc2c(C)n(Cc3ccc(C)cc3)c3ccc(OC)cc23)C(=O)O)cc1 [Example 188, N-{[4-(but-2-ynyloxy)phenyl]sulfonyl}-5-methoxy-2-methyl-1-(4-methylbenzyl)tryptophan]",270 nM
4,"CC#CCOc1ccc(S(=O)(=O)N[C@H](Cc2cn(C)c3ccccc23)C(=O)O)cc1 [Example 21, N-{[4-(but-2-ynyloxy)phenyl]sulfonyl}-1-methyl-D-tryptophan]",1400 nM
5,"CC#CCOc1ccc(S(=O)(=O)N[C@@H](Cc2c(C)n(Cc3ccccc3C)c3ccc(OC)cc23)C(=O)O)cc1 [Example 186, N-{[4-(but-2-ynyloxy)phenyl]sulfonyl}-5-methoxy-2-methyl-1-(2-methylbenzyl)tryptophan]",280 nM
6,"CC#CCOc1ccc(S(=O)(=O)N[C@@H](Cc2c[nH]c3cc(C)ccc23)C(=O)O)cc1 [Example 8, N-{[4-(but-2-ynyloxy)phenyl]sulfonyl}-6-methyltryptophan]",1570 nM
7,"CC#CCOc1ccc(S(=O)(=O)N[C@@H](Cc2c(C)n(Cc3ccc(OC)cc3)c3ccc(Cl)cc23)C(=O)O)cc1 [Example 91, N-{[4-(but-2-ynyloxy)phenyl]sulfonyl}-5-chloro-1-(4-methoxybenzyl)-2-methyltryptophan]",190 nM

# Same assay, conditions: TACE FRET assay, Conc. 1 μM
row,SMILES,TACE Inhibition (%)
1,CC#CCOc1ccc(S(=O)(=O)N[C@@H](Cc2cn(Cc3ccccc3OC)c3ccc(C(=O)O)cc23)C(=O)O)cc1 [Example 107],7.34%

# Same assay, conditions: TACE FRET assay, catalytic domain of recombinant TACE; read-out: TACE IC50
row,SMILES,IC50
1,"CC#CCOc1ccc(S(=O)(=O)N[C@H](Cc2cn(Cc3ccc(Cl)cc3)c3ccccc23)C(=O)O)cc1 [Example 42, N-{[4-(but-2-ynyloxy)phenyl]sulfonyl}-1-(4-chlorobenzyl)-D-tryptophan]",3450 nM
2,"CC#CCOc1ccc(S(=O)(=O)N[C@@H](Cc2c[nH]c3ccccc23)C(=O)O)cc1 [Example 2, N-{[4-(but-2-ynyloxy)phenyl]sulfonyl}-L-tryptophan]",8200 nM
3,"CC#CCOc1ccc(S(=O)(=O)N[C@H](Cc2cn(CCCCC)c3ccccc23)C(=O)O)cc1 [Example 22, N-{[4-(but-2-ynyloxy)phenyl]sulfonyl}-1-pentyl-D-tryptophan]",2310 nM

# Same assay, conditions: read-out: TACE Inhibition (%)
row,SMILES,inhibition at 1 µM
1,"CC#CCOc1ccc(S(=O)(=O)N[C@@H](Cc2c(C)n(Cc3ccc(C(F)(F)F)cc3)c3ccc(OC)cc23)C(=O)O)cc1 [Example 195, N-{[4-(but-2-ynyloxy)phenyl]sulfonyl}-5-methoxy-2-methyl-1-[4-(trifluoromethyl)benzyl]tryptophan]",78.3%
2,"CC#CCOc1ccc(S(=O)(=O)N[C@@H](Cc2cn(Cc3ccc(OC(F)(F)F)cc3)c3ccc(C#N)cc23)C(=O)O)cc1 [Example 140, N-{[4-(but-2-ynyloxy)phenyl]sulfonyl}-5-cyano-1-[4-(trifluoromethoxy)benzyl]tryptophan]",16%
3,"CC#CCOc1ccc(S(=O)(=O)N[C@@H](Cc2cn(Cc3ccc(F)cc3)c3ccc(OC)cc23)C(=O)O)cc1 [Example 60, N-{[4-(but-2-ynyloxy)phenyl]sulfonyl}-1-(4-fluorobenzyl)-5-methoxytryptophan]",43.5%
4,"CC#CCOc1ccc(S(=O)(=O)N[C@@H](Cc2cn(Cc3ccccc3)c3ccc(Cl)cc23)C(=O)O)cc1 [Example 71, 1-benzyl-N-{[4-(but-2-ynyloxy)phenyl]sulfonyl}-5-chlorotryptophan]",-1.19%
5,"CC#CCOc1ccc(S(=O)(=O)N[C@@H](Cc2c(C)n(Cc3cc(OC)cc(OC)c3)c3ccc(OC)cc23)C(=O)O)cc1 [Example 192, N-{[4-(but-2-ynyloxy)phenyl]sulfonyl}-1-(3,5-dimethoxybenzyl)-5-methoxy-2-methyltryptophan]",80%
6,"CC#CCOc1ccc(S(=O)(=O)N[C@@H](Cc2cn(Cc3cc(OC)cc(OC)c3)c3ccc(OC)cc23)C(=O)O)cc1 [Example 54, N-{[4-(but-2-ynyloxy)phenyl]sulfonyl}-1-(3,5-dimethoxybenzyl)-5-methoxytryptophan]",38%
7,"CC#CCOc1ccc(S(=O)(=O)N[C@@H](Cc2c(C)n(Cc3ccc(C(=O)O)cc3)c3ccc(OC)cc23)C(=O)O)cc1 [Example 207, N-{[4-(but-2-ynyloxy)phenyl]sulfonyl}-1-(4-carboxybenzyl)-5-methoxy-2-methyltryptophan]",62.1%
8,"CC#CCOc1ccc(S(=O)(=O)N[C@@H](Cc2cn(Cc3ccc(C(C)C)cc3)c3ccc(Cl)cc23)C(=O)O)cc1 [Example 82, N-{[4-(but-2-ynyloxy)phenyl]sulfonyl}-5-chloro-1-(4-isopropylbenzyl)tryptophan]",5.26%
9,"CC#CCOc1ccc(S(=O)(=O)N[C@@H](Cc2cn(CC3CCCCC3)c3ccc(C(=O)O)cc23)C(=O)O)cc1 [Example 132, N-{[4-(but-2-ynyloxy)phenyl]sulfonyl}-5-carboxy-1-(cyclohexylmethyl)tryptophan]",9.55%
10,"CC#CCOc1ccc(S(=O)(=O)N[C@@H](Cc2cn(Cc3ccccc3C#N)c3ccc(OC)cc23)C(=O)O)cc1 [Example 64, N-{[4-(but-2-ynyloxy)phenyl]sulfonyl}-1-(2-cyanobenzyl)-5-methoxytryptophan]",40.9%
11,"CC#CCOc1ccc(S(=O)(=O)N[C@@H](Cc2cn(Cc3cc(OC)cc(OC)c3)c3ccc(C(=O)O)cc23)C(=O)O)cc1 [Example 110, N-{[4-(but-2-ynyloxy)phenyl]sulfonyl}-5-carboxy-1-(3,5-dimethoxybenzyl)tryptophan]",8.02%
12,"CC#CCOc1ccc(S(=O)(=O)N[C@H](Cc2cn(Cc3ccc(O)cc3)c3ccccc23)C(=O)O)cc1 [Example 214, N-{[4-(but-2-ynyloxy)phenyl]sulfonyl}-1-(4-hydroxybenzyl)-D-tryptophan]",8.77%
13,"CC#CCOc1ccc(S(=O)(=O)N[C@@H](Cc2cn(Cc3ccc(C(=O)O)cc3)c3ccc(C(=O)O)cc23)C(=O)O)cc1 [Example 126, N-{[4-(but-2-ynyloxy)phenyl]sulfonyl}-5-carboxy-1-(4-carboxybenzyl)tryptophan]",8.36%
14,"CC#CCOc1ccc(S(=O)(=O)N[C@@H](Cc2c(C)n(Cc3ccc(Cl)cc3)c3ccccc23)C(=O)O)cc1 [Example 156, N-{[4-(but-2-ynyloxy)phenyl]sulfonyl}-1-(4-chlorobenzyl)-2-methyltryptophan]",43.3%
15,"CC#CCOc1ccc(S(=O)(=O)N[C@@H](Cc2cn(Cc3ccc(Cl)cc3)c3ccc(OC)cc23)C(=O)O)cc1 [Example 62, N-{[4-(but-2-ynyloxy)phenyl]sulfonyl}-1-(4-chlorobenzyl)-5-methoxytryptophan]",39.3%
16,"CC#CCOc1ccc(S(=O)(=O)N[C@@H](Cc2cn(Cc3ccc(OC)cc3)c3ccc(Cl)cc23)C(=O)O)cc1 [Example 76, N-{[4-(but-2-ynyloxy)phenyl]sulfonyl}-5-chloro-1-(4-methoxybenzyl)tryptophan]",18.3%
17,"CC#CCOc1ccc(S(=O)(=O)N[C@H](Cc2cn(Cc3ccc(OCC)cc3)c3ccccc23)C(=O)O)cc1 [Example 215, N-{[4-(but-2-ynyloxy)phenyl]sulfonyl}-1-(4-ethoxybenzyl)-D-tryptophan]",69.5%
18,"CC#CCOc1ccc(S(=O)(=O)N[C@@H](Cc2cn(Cc3cccc(F)c3)c3ccc(Cl)cc23)C(=O)O)cc1 [Example 80, N-{[4-(but-2-ynyloxy)phenyl]sulfonyl}-5-chloro-1-(3-fluorobenzyl)tryptophan]",27.1%
19,"CC#CCOc1ccc(S(=O)(=O)N[C@@H](Cc2cn(Cc3cc(F)cc(F)c3)c3ccc(OC)cc23)C(=O)O)cc1 [Example 61, N-{[4-(but-2-ynyloxy)phenyl]sulfonyl}-1-(3,5-difluorobenzyl)-5-methoxytryptophan]",39.5%
20,"CC#CCOc1ccc(S(=O)(=O)N[C@@H](Cc2cn(Cc3ccc(C(F)(F)F)cc3)c3ccc(OC)cc23)C(=O)O)cc1 [Example 57, N-{[4-(but-2-ynyloxy)phenyl]sulfonyl}-5-methoxy-1-[4-(trifluoromethyl)benzyl]tryptophan]",32.1%
21,"CC#CCOc1ccc(S(=O)(=O)N[C@@H](Cc2cn(Cc3ccc(C)cc3)c3ccc(C(=O)O)cc23)C(=O)O)cc1 [Example 106, N-{[4-(but-2-ynyloxy)phenyl]sulfonyl}-5-carboxy-1-(4-methylbenzyl)tryptophan]",5.53%
22,"CC#CCOc1ccc(S(=O)(=O)N[C@@H](Cc2cn(Cc3cccc(F)c3)c3ccc(C(=O)O)cc23)C(=O)O)cc1 [Example 116, N-{[4-(but-2-ynyloxy)phenyl]sulfonyl}-5-carboxy-1-(3-fluorobenzyl)tryptophan]",9.72%
23,"CC#CCOc1ccc(S(=O)(=O)N[C@@H](Cc2c(C)n(CCCCC)c3ccc(OC)cc23)C(=O)O)cc1 [Example 211, N-{[4-(but-2-ynyloxy)phenyl]sulfonyl}-5-methoxy-2-methyl-1-pentyltryptophan]",72.2%
24,"CC#CCOc1ccc(S(=O)(=O)N[C@@H](Cc2c(C)n(Cc3ccc(OC(F)(F)F)cc3)c3ccccc23)C(=O)O)cc1 [Example 151, N-{[4-(but-2-ynyloxy)phenyl]sulfonyl}-2-methyl-1-[4-(trifluoromethoxy)benzyl]tryptophan]",24.3%
25,"CC#CCOc1ccc(S(=O)(=O)N[C@@H](Cc2cn(Cc3ccccc3)c3ccc(C#N)cc23)C(=O)O)cc1 [Example 135, 1-benzyl-N-{[4-(but-2-ynyloxy)phenyl]sulfonyl}-5-cyanotryptophan]",29.6%

# — patent US7576222B2, “Alkynyl-containing tryptophan derivative inhibitors of TACE/matrix metalloproteinase” (priority 2004, dated 2009)
